Results: patent publication US20210147932A1, “FLUORESCENT PROBES FOR QUANTIFICATION OF DNA DAMAGE AND REPAIR” (The Board of Trustees of the Leland Stanford Junior …, priority 2019, published 2021)

Key:
[1] = system: DNA AP site (AP site containing DNA, oligo 15); assay: Fluorescence response of probe covalently attached to the AP site of a DNA hairpin; type: biochemical
Experimental: FIG. 2B provides emission spectra of oligonucleotide-probe conjugates compared to the emission spectra of the free probe at 2 μM concentration in 50 mM Tris buffer pH 7.0. Excitation was at 470 nm for Compound (1) (also referred to herein as CCVJ1) and 450 nm for Compounds 8 and 9 (also referred to herein as NP1 and NP2) and Compounds 4 and 6 (also referred to herein as BD1 and BD2).
To assess the potential fluorescence response of each probe, a 17mer DNA hairpin containing a single AP site was prepared and reacted it with a 10-fold excess of probe overnight. The subsequent DNA-probe conjugates were precipitated to remove excess fluorophore and full DNA labelling was confirmed by MALDI-TOF mass spectrometry (Table 1). The reacted DNAs were re-suspended in buffer to a concentration of 2 μM and the emission spectra compared with the spectra of the free probes in solution. […] In addition to its large fluorescence response, CCVJ1 is accessed readily through a facile 4-step synthesis and has good spectral overlap with fluorescein. This makes the probe accessible to a wide range of researchers and well suited to the majority of fluorescence-based instruments.
In addition to the 5′ and 3′ neighboring bases, studies were done of the effect of the orphaned base Z paired opposite the abasic site on the UBER probe system (FIG. 10, panels C-D). Using the sequence where X=C and Y=G, the identity was varied of the base Z opposite the AP site. […] As a result, the smaller pyrimidine bases yielded a greater fluorescence light up response than the larger purine bases. It was also observed a strong effect by the opposing base on the rate of oxime formation (FIG. 10, panel D). […] This trend is in contrast to the neighboring base effect discussed above in which stronger stacking bases accelerated the rate of oxime formation.
General procedure for creating AP site DNA: A deoxyuridine containing oligonucleotide (typically 5-20 μM) was treated with 10 U/mL E. coli UDG (New England Biolabs) for 10 minutes at 37° C. in buffer to create AP site containing DNA (see below for MALDI-TOF confirmation). The hairpin was then reacted with probe from a DMSO stock solution (final DMSO concentration <5%).
Procedure for assessing fluorescence response of probes: To assess the fluorescence response of the probes, 25 μM AP site containing DNA (oligo 15) was prepared in a 20 μL solution and allowed to react with 500 μM of each probe overnight. The DNA was then precipitated by the addition of 80 μL 0.33 M sodium acetate and 300 μL ethanol and centrifuged at 21,100 g for 1 hr at 4° C. The resulting DNA pellet was washed twice with 70% EtOH and re-suspended in buffer to a concentration of 2 μM. A portion of the DNA pellet was used for MALDI-TOF analysis. The emission spectra of the probe-oligonucleotide conjugate was measured and compared against a 2 μM solution of the free probe

NTH1 = biological target: T1, NTH1 (Homo sapiens, UniProt P78549); assay: NTH1 coupled assay with 5-hydroxycytosine DNA hairpin; type: biochemical; conditions: NTH1 500 nM, 5hC DNA substrate 60 μM, CCVJ1 20 μM
T1 construct: purchased Novus biologics
T1 sequence (P78549 23-304): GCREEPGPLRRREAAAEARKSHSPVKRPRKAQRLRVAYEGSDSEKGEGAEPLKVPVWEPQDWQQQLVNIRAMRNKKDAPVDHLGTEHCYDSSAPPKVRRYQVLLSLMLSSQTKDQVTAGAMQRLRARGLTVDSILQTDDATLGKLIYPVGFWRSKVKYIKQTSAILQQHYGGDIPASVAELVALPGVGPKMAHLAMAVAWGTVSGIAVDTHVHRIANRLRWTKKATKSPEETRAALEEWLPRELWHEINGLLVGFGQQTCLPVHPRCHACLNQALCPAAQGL
Experimental: FIG. 15, panels A-G provides quantitative coupled assays using Compound (1) (CCJV1). Shown are data from reaction of lesion containing substrates with UNG and SMUG1 (5 nM) (panel A), MPG (100 nM) (panel B), NTH1 (500 nM) (panel C), OGG1 (100 nM) in real-time (panel D) with lesion containing DNA (2 μM) and CCVJ1 (20 μM) (panels A, B and D) or lesion containing DNA (60 μM) and CCVJ1 (20 μM) […]. […] Delay time tss of 25 minutes indicated with dotted line.
FIG. 16 provides time course of NTH1 (500 nM) with 5-hydroxycytosine containing DNA (60 μM) and Compound (1) (CCVJ1) (20 μM). […] Following a 10-minute incubation period, additional substrate was then added (20 μM) which yielded an increase in fluorescence.
Based on the results of our neighboring base effect study, several glycosylase oligonucleotide substrates were purchased or prepared in which the identity of the base lesion X was varied to correspond to the known activities of different target glycosylases (FIG. 15, panel E). For these studies human enzymes SMUG1/UNG, OGG1, MPG and NTH1, were chosen which represent a diverse array of human glycosylases. […] Assays were carried out in a 60 μL volume in a 384 well format on a microplate reader using a fluorescein filter set. For each enzyme, it was possible to observe a robust fluorescence signal (FIG. 15, panels A-D). […]

[2] = system: DNA hairpin containing a tetrahydrofuran spacer (pseudo AP site); assay: Fluorescence of probe with pseudo AP site DNA hairpin (non-covalent); type: binding
Experimental: FIG. 9 provides interaction between Compound (1) (CCVJ1) and DNA. […] (Ex. 485, Em. 538).
To further explore the hypothesis that the oxime rate acceleration in these AP-site DNAs was related to base stacking interactions, the fluorescence was measured of CCVJ1 in the presence and absence of a non-lesion containing DNA hairpin.

In the case of N#C/C(=C\c1cc2c3c(c1)CCCN3CCC2)C(=O)NCCON [CCVJ1], the “increase in fluorescence when bound to the AP site vs free probe” value ([1]; 17mer hairpin conjugate 2 μM vs free probe) is reported as 256 fold, the “overall increase in fluorescence relative to the probe alone, optimal neighboring bases” value ([1]; AP hairpin X=C, Y=G, Z=C) is reported as 508 fold and the “fluorescence light up response (summary)” value ([1]; relative to the unbound probe) is reported as 250-500 fold. For the same compound, the “overall fold change of fluorescence with NTH1” value (NTH1) was 20 fold, the “fluorescence with pseudo AP hairpin, higher than with undamaged DNA” value [2] was about 4 fold and the “increase in fluorescence with pseudo AP hairpin over the free probe” value ([2]; 5 μM probe, 20 μM DNA) was about 10 fold.
